Holding throughout (type): physicochemical
The nature of data set [1]: Comparative stability, Formulation 4 (based on Treanda, mannitol). The note with it: pH 4-5 (bendamustine), pH 4 (Compound (1c)•HCl). The procedure: (§1) The stability of Compound (1c) either as the HCl salt or as the free base was compared to the stability of melphalan HCl and/or bendamustine HCl in various pharmaceutical formulations and at different concentrations and at temperatures of 0° C. or 25° C.
(§2) The stability of the compounds in the pharmaceutical formulations was determined at concentrations within the range from 0.4 mg/mL to 0.5 mg/mL, from 0.9 mg/mL to 1.1 mg/mL, and from 1.8 mg/mL to 2.1 mg/mL.
(§3) The amount of the active pharmaceutical ingredient (API) (Compound (1c), melphalan or bendamustine) in the pharmaceutical formulations at different times during storage was determined using HPLC/UV as described in detail for Example 4 and Example 5.
Treanda® is an injectable formulation of bendamustine hydrochloride, 1H-benzimidazole-2-butanoic acid, 5-[bis(2-chloroethyl)amino]-1-methyl-, 4-(5-(bis(2-chloroethyl)amino)-1-methyl-1H-benzo[d]imidazol-2-yl) butanoic acid monohydrochloride approved by the FDA. Treanda® for injection is provided in a vial containing either 25 or 100 mg of bendamustine HCl as a white to off-white lyophilized powder. Each vial contains either 25 mg or 100 mg of bendamustine hydrochloride and 42.5 mg or 170 mg of mannitol, USP, which is reconstituted in either 0.9% sodium chloride injection, USP, or 2.5% dextrose/0.45% sodium chloride solution injection, USP to a final concentration of 0.2 mg/mL-0.6 mg/mL and adjusted to a pH from 2.5 to 3.5.
A series of 12 mL glass vials each containing 12.5 mg (0.0317 mmol) of bendamustine mono-hydrochloride salt (C16H21C12N3O2·HCl, 394.72 g/mol; MedKoo, 200470) (corresponding to 11.3 mg of bendamustine as the free base) were prepared through weighing out the commercial compound into the vials. To each of the vials either containing bendamustine mono-hydrochloride salt was added 21.3 mg (0.117 mmol) of D-mannitol (C6H14O6, MW 182.17 g/mol; SigmaAldrich, M1902). The mixtures were dissolved in 2.0 mL of double distilled water (dd-H2O) (Arrowhead), the clear colorless solutions were frozen at −78° C. (dry ice/acetone bath), and the solvents were lyophilized off at about 100 mTorr within about 16 h to afford colorless solids.
A stock solution was prepared by dissolving 85.0 mg (0.255 mmol) of Compound (1c) (free base) and 170.4 mg of D-mannitol (0.935 mmol) (C6H14O6, MW 182.17 g/mol; SigmaAldrich, M1902), and 0.503 mL of 0.5072 M aq. HCl (0.255 mmol, 1.0 eq.) (Fluka, 318957) in about 16.0 mL of a mixture of acetonitrile/water (1:1, v/v) with vortexing in clean graduated glass cylinder (25 mL) to afford a stock solution of Compound (1c) as a mono-HCl salt of a concentration of 5.313 mg/mL and a D-mannitol concentration of 10.65 mg/mL. This solution was filtered through a 0.22 μm PTFE syringe filter into a clean 25 mL Erlenmeyer flask. Aliquots of 2.0 mL (2× 1.0 mL; 2× 5.313 mg) of this stock solution were rapidly pipetted into clean 12 mL scintillation vials. The aliquots were frozen at −78° C. (dry ice/acetone bath) and lyophilized at about 100 mTorr for about 16 hours to provide test vials each containing 11.8 mg (0.0319 mmol) of Compound (1c) mono-hydrochloride salt (mono-HCl salt) (corresponding to 10.6 mg of Compound (1c) as a free base) and 21.3 mg (0.117 mmol) of D-mannitol as a colorless powdery solid.
The materials in the vials were dissolved 2.5 mL of double-distilled water (dd-H2O) (Arrowhead) to provide clear colorless, non-viscous stock solutions of a concentration of 4.24 mg/mL of Compound (1c) as the monohydrochloride salt or 4.54 mg/mL of bendamustine as the mono-hydrochloride salt, respectively.
1.0 mL of the stock solution containing 4.24 mg/mL of Compound (1c) as the monohydrochloride salt was diluted with 9.0 mL of 0.9% saline to afford 10.0 mL of a test solution of a concentration of 0.424 mg/mL of Compound (1c) as the monohydrochloride salt and with a pH of about 4. […]

The nature of data set [2]: Comparative stability, Formulation 3 (based on Evomela, SBE6.5-β-CD). The note with it: Formulation 3, 25° C., 0.4-0.5 mg/mL, pH 5.8-6.1 (melphalan), pH 5-6 (Compound (1c)•HCl). The procedure:
as §1, §2, §3
Evomela® is an injectable formulation of melphalan hydrochloride, 4-[bis(2-chloroethyl)amino]-L-phenylalanine hydrochloride, approved by the FDA. Evomela® is supplied as a sterile white to off-white lyophilized powder in a single-dose vial for intravenous use. Each vial containing 50 mg melphalan free base equivalent to 56 mg melphalan hydrochloride and 2,700 mg betadex sulfobutyl ether (SBE6.5-β-CD; sulfobutyl ether β-cyclodextrin sodium) sodium, NF. Normal saline solution (0.9% Sodium Chloride Injection, USP) (8.6 mL as directed) is used to reconstitute Evomela® to a total of 10 mL having a 5 mg/mL nominal concentration of melphalan. The required volume of Evomela® needed for a patient dose is withdrawn from the vial(s) and added to the appropriate volume of 0.9% Sodium Chloride Injection, USP, to a final nominal concentration of 0.45 mg/mL of melphalan. This solution is then infused via an injection port or central venous catheter.
A series of 12 mL glass vials each containing 5.5 mg (0.0165 mmol of Compound (1c) free base and 270 mg of SBE6.5-β-CD, Captisol®) were prepared as described in Example 4.
The cyclodextrin derivative/Compound (1c) free base guest-host inclusion complex was reconstituted by dissolving the guest-host inclusion complex in 0.86 mL of 0.9% saline to provide 1.0 mL of a solution having a nominal concentration of 5.5 mg/mL of Compound (1c) free base.
A 1.0 mL aliquot of this solution was diluted with 10.0 mL of 0.9% saline, and the pH adjusted with 5 μL of a saturated aqueous NaHCO3 solution to provide 11.0 mL of a clear, colorless solution having a nominal concentration of 0.50 mg/mL of Compound (1c) from Compound (1c) free base and a pH from 5.8 to 6.1.
A 1.0 mL aliquot of this solution was diluted with 4.5 mL of 0.9% saline, and the pH adjusted with 5 μL of a saturated aqueous NaHCO3 solution to provide 5.5 mL of a clear, colorless solution having a nominal concentration of 1.0 mg/mL of Compound (1c) from Compound (1c) free base and a pH of about 6.1.
A 1.0 mL aliquot of this solution was diluted with 1.75 mL of 0.9% saline, and the pH adjusted with 5 μL of a saturated aqueous NaHCO3 solution to provide 2.75 mL of a clear, colorless solution having a nominal concentration of 2.0 mg/mL of Compound (1c) from Compound (1c) free base and a pH of about 6.1.
A series of 12 mL glass vials each containing 6.1 mg (0.0165 mmol of Compound (1c) mono-hydrochloride salt (corresponding to 5.5 mg of Compound (1c) free base) and 270 mg of SBE6.5-β-CD, Captisol®) were prepared as described in Example 5.
The cyclodextrin derivative/Compound (1c) mono-HCl salt guest-host inclusion complex was reconstituted by dissolving the guest-host inclusion complex in 0.86 mL of 0.9% saline to provide 1.0 mL of a solution having a nominal concentration of 6.1 mg/mL of Compound (1c) mono-HCl salt (corresponding to a nominal concentration of 5.5 mg/mL of the Compound (1c) free base).
A 0.5 mL aliquot of this solution was diluted with 5.0 mL of 0.9% saline, and the pH adjusted with 5 μL of a saturated aqueous NaHCO3 solution to provide 5.5 mL of a clear, colorless solution having a nominal concentration of 0.50 mg/mL of Compound (1c) from Compound (1c) mono-hydrochloride and a pH from 5.3 to 5.5. […]

Data set [3] can be described thus: Stability of Compound (1c) free base in PBS buffer (LC/MS/MS). As to conditions: PBS buffer pH 7.4, 37° C., 1 μM. The procedure:
A stability assay was carried out in 96-well microtiter plates. (S)-3-Amino-4-(5-(bis(2-chloroethyl)amino)-2-methylphenyl) butanoic acid (Compound (1c) free base) was incubated at 37° C. in phosphate buffered saline (PBS buffer), pH 7.4. The reaction mixtures (30 μL) contained a final concentration of 1 μM of Compound (1c). The percent Compound (1c) remaining in the mixture was determined using LC/MS/MS.
At each of the sampling time points, 300 μL of quench solution (50 vol-% acetonitrile, 50 vol-% methanol containing 1.3% (v/v) of 6N HCl) with internal standards (bucetin for positive ESI mode; warfarin for negative ESI mode) was transferred to each well. Plates were sealed and centrifuged at 4° C. for 15 min at 4,000 rpm. The supernatant was transferred to new plates for LC/MS/MS analysis.
All samples were analyzed on LC/MS/MS using an AB Sciex API 4000® instrument, coupled to a Shimadzu LC-20AD LC Pump system. Analytical samples were separated using a Waters Atlantis T3 dC18 reverse phase HPLC column (20 mm×2.1 mm) at a flow rate of 0.4 mL/min. The mobile phases consisted of 0.1% formic acid in water (solvent A) and 0.1% formic acid in 100% acetonitrile (solvent B).

For the molecule `Cl.Cn1c(CCCC(=O)O)nc2cc(N(CCCl)CCCl)ccc21` [Bendamustine•HCl, 4-(5-(bis(2-chloroethyl)amino)-1-methyl-1H-benzo[d]imidazol-2-yl) butanoic acid monohydrochloride, reference compound], the “% API” value in data set [1] (Formulation 4, 0° C., 0.5 hours, 0.4-0.5 mg/mL) was found to be 98%; in data set [1] (Formulation 4, 0° C., 2.0 hours, 0.4-0.5 mg/mL) it was 95%; in data set [1] (Formulation 4, 25° C., 0.5 hours, 0.4-0.5 mg/mL) it was 98%; in data set [1] (Formulation 4, 25° C., 0.5 hours, 0.9-1.1 mg/mL), 97%; in data set [1] (Formulation 4, 25° C., 0.5 hours, 1.8-2.1 mg/mL) it was 95%; in data set [1] (Formulation 4, 25° C., 2.0 hours, 0.4-0.5 mg/mL) it was 91%. Moreover, the “% API” value in data set [1] (Formulation 4, 25° C., 2.0 hours, 0.9-1.1 mg/mL) was 95%; in data set [1] (Formulation 4, 25° C., 2.0 hours, 1.8-2.1 mg/mL) it was 89%.

Consider `N[C@@H](Cc1ccc(N(CCCl)CCCl)cc1)C(=O)O` [Melphalan free base, melphalan, reference compound], for which the entries for the “% API” value in data set [2] (0.5 hours) and in data set [2] (2.0 hours) were 97% and 84%, respectively.

Turning to `Cc1ccc(N(CCCl)CCCl)cc1C[C@H](N)CC(=O)O` [Compound (1c), (S)-3-amino-4-(5-(bis(2-chloroethyl)amino)-2-methylphenyl) butanoic acid], the “Compound (1c) Remaining (%)” value is 100% in data set [3] (0 min); 78% in data set [3] (15 min); 68% in data set [3] (30 min); 56% in data set [3] (60 min); 30% in data set [3] (120 min); 10% in data set [3] (240 min).
